This note sets out measurements from PMC7306040, “Exploring the abundance of oleate hydratases in the genus Rhodococcus—discovery of novel enzymes with complementary substrate scope” (Applied Microbiology and Biotechnology, 2020).

Structures are written as SMILES.

The target in experiment [1] is T1, RpOhy (DSM 20415) (Rhodococcus pyridinivorans, UniProt A0A7T7LF34).
T1 construct: gene INP59_15660; N-terminally His6-tagged, codon-optimised, pBAD/His A, E. coli TOP10; Ni-NTA and SEC; monomer, dimer and larger aggregates
T1 sequence (A0A7T7LF34 1-601): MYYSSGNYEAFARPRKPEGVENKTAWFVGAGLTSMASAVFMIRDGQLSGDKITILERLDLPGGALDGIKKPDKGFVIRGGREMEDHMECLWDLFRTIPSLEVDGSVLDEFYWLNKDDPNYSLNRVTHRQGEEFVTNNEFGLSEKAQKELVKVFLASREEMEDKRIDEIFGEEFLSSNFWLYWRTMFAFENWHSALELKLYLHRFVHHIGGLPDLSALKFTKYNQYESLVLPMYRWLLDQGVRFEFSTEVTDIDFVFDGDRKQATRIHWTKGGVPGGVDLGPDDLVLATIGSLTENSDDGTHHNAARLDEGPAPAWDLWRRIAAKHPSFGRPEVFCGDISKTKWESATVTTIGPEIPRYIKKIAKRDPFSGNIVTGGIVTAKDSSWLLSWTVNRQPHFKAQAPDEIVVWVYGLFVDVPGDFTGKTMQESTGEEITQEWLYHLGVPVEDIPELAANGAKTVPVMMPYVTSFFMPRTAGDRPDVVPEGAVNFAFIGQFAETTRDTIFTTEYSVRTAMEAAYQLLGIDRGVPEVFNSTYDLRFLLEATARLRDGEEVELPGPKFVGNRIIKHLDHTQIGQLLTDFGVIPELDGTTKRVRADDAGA
Put plainly: yellow colour of purified enzyme; oleic acid conversion with […] added FAD. The class given is binding. Conditions: 20 mM acetate pH 5, 25 °C, 500 uM oleic acid, 1% DMSO.

Experiment [2] has as its target T1, RpOhy (DSM 20415). Description: coupled assay with alcohol dehydrogenase ADH010, NADH at […] nm. The class given is biochemical. Conditions: apparent cooperative, Hill n 2.45 ± 0.47; 2 mM NAD+, 50 mM PIPES pH 6.5, 10% DMSO; read-out: K0.5.

Turning to `Cc1cc2nc3c(=O)[nH]c(=O)nc-3n(C[C@H](O)[C@H](O)[C@H](O)COP(=O)(O)OP(=O)(O)OC[C@H]3O[C@@H](n4cnc5c(N)ncnc54)[C@H](O)[C@@H]3O)c2cc1C` [FAD], in experiment [1], the “yellow colour of purified enzyme; oleic acid conversion with 0-100 uM added FAD” value was “yellow colour indicating that the FAD cofactor was incorporated in the enzyme”. Consider `CCCCCCCC/C=C\CCCCCCCC(=O)O` [compound 3, Oleic acid], for which, in experiment [2], the Km came to 720 ± 70 µM.
